From patent publication US20170291890A1 (Epizyme, Inc., priority 2014, published 2017)

Assays:
[1] = target: T1, KDM4A (Homo sapiens, UniProt O75164); experiment: KDM4A Assay (SAMDI mass spectrometry demethylase assay); type: biochemical; details: N-terminal His-tagged KDM4A 1-350; class symbols; read-out: 4A IC50
T1 construct: N-terminal His-tagged KDM4A^1-350 was purchased from BPS Biosciences; His (N); purchased BPS Biosciences
T1 sequence (O75164 1-350): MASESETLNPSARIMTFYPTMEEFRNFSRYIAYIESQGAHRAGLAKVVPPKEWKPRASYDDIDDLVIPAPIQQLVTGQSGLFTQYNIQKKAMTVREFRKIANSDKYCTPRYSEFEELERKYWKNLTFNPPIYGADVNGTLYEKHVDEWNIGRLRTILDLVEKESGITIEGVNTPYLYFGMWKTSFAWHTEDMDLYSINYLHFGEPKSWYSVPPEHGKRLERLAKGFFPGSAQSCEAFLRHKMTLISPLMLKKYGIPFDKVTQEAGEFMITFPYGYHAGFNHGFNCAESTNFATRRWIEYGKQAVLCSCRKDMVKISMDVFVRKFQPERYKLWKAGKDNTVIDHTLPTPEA
Protocol: (§1) N-terminal His-tagged KDM4A^1-350 was purchased from BPS Biosciences. Peptides were synthesized by BioPeptide and all other reagents were purchased from Sigma-Aldrich at the highest level of purity possible. Assays were performed in a 50 μL volume in 384-well V-bottom polypropylene microplates (Greiner) at 25° C. Optimized 1× assay buffer was 50 mM HEPES (pH=8.0), 100 μM sodium ascorbate, 20 mM NaCl, 10 μM ammonium iron sulfate, 1 mM tris(2-carboxyethyl)phosphine (TCEP), 0.002% Tween-20, and 0.005% BSG. For compound screening, 35 μL of KDM4A^1-350 (final concentration, f.c.=5 nM) was added using a Multidrop Combi and preincubated with 1 μL of test compound (f.c.=10 μM) for 30 minutes and subsequently 15 μL of peptide with the following sequence NH2-ARTKQTAR(Kme2)STGGKAPRKQLA(K-Ahx-Biotin)-amide (f.c.=600 nM) and 2-oxoglutarate (f.c.=5 μM) was added by Multidrop Combi to begin the reaction. Reactions proceeded for 120 minutes and were stopped by the addition of 5 μL of formic acid (f.c.=0.5%) using a Multidrop Combi and then analyzed by SAMDI Tech Inc.
(§2) SAMDI Tech analyzed all reactions using self-assembled monoloayer desorption/ionization technology as previously described (Gerard-Levin Z A, Scholle M D, Eisenberg A H, et al.: High-throughput screening of small molecule libraries using SAMDI mass spectrometry. ACS Comb Sci 2011; 13:347-350). Briefly, a 2 μL sample of the stopped demethylase reactions were transferred to a SAMDI array coated with 384 biotin-neutravidin spots using a 384-channel pipet station. The SAMDI arrays were incubated for 1 h in a humidified chamber, followed by washing of the surface with deionized ultra-filtered water (DIUF) and drying under nitrogen. A matrix of 30 mg/ml 2′,4′,6′-Trihydroxyacetophenone monohydrate (THAP) in acetone was applied using a TPP Mosquito 1.2 μL tip by dispensing 50 nL on each of the 384 spots on the array. SAMDI-MS was run using acquisition method ReflectorPositiveUTX. The % conversion of substrate to product was calculated using the AUC of the substrate and product peptide peaks.
(§3) An IC50 value was determined by contacting various concentrations of a test compound with one of the KDM4A, KDM4C or KDMSC enzyme constructs and plotting a dose-response curve which associates the amount of inhibition of the enzyme relative to the concentration of the test compound. From the curve, the IC50 value (which represents the concentration of the test compound necessary to inhibit maximal enzymatic activity by 50%) was determined. Additionally, the slope of the linear range of the plotted curve, which indicates the speed with which the curve rises between the minimum and maximum, was calculated.

[2] = target: T2, KDM4C (Homo sapiens, UniProt Q9H3R0); experiment: KDM4C Assay (SAMDI mass spectrometry demethylase assay); type: biochemical; details: N-terminal GST-tagged KDM4C 2-372; class symbols; read-out: 4C IC50
T2 construct: N-terminal GST-tagged KDM4C^2-372 was purchased from BPS Biosciences; GST (N); purchased BPS Biosciences
T2 sequence (Q9H3R0 2-372): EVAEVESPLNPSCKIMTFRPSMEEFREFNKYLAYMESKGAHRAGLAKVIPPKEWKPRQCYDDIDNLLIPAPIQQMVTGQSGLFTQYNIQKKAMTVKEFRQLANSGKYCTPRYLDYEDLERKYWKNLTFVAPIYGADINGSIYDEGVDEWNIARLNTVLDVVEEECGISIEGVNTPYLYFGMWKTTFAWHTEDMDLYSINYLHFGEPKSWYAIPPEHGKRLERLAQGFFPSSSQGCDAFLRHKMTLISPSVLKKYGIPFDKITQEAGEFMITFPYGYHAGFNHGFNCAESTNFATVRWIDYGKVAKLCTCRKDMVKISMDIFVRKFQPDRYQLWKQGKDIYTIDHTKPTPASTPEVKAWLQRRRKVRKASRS
Protocol: as §1, with “GST-tagged KDM4C^2-372” for “His-tagged KDM4A^1-350”, “KDM4C^2-372” for “KDM4A^1-350”, “NH2-ARTKQTAR(Kme3)STGGKAPRKQLA(K-Ahx-Biotin)-amide (f.c.=500” for “NH2-ARTKQTAR(Kme2)STGGKAPRKQLA(K-Ahx-Biotin)-amide (f.c.=600”, “(f.c.=15” for “(f.c.=5”, “150” for “120”
as §2, §3

**Q.** How did the IC50 [1] turn out when `COc1ccc(-n2nc(C)c(Nc3cnccc3C(=O)O)c2C)cc1` [Compound 75, 3-((1-(4-methoxyphenyl)-3,5-dimethyl-1H-pyrazol-4-yl)amino)isonicotinic acid] was run?
**A.** 100 to 1000 nM

**Q.** What about the IC50 [2] of the same compound?
**A.** 1000 to 10000 nM

**Q.** What does the source list for `Cc1c(Nc2cnccc2C(=O)O)cnn1C1CCCN(C)CC1` (centres unmarked) [Compound 112, 3-((5-methyl-1-(1-methylazepan-4-yl)-1H-pyrazol-4-yl)amino)isonicotinic acid]?
**A.** IC50 [1]: 100 to 1000 nM; IC50 [2]: 100 to 1000 nM

**Q.** How did the IC50 [1] turn out when `Cc1nn(-c2ccccc2)cc1Nc1cnccc1C(=O)O` [Compound 19, 3-((3-Methyl-1-phenyl-1H-pyrazol-4-yl)amino)isonicotinic acid] was run?
**A.** 1 to 100 nM

**Q.** And the IC50 [2]?
**A.** 100 to 1000 nM

**Q.** With `O=C(O)c1ccncc1Nc1c(-c2ccccc2)cnn1-c1ccccc1` [Compound 43, 3-((1,4-Diphenyl-1H-pyrazol-5-yl)amino)isonicotinic acid] as the compound, how does the IC50 [1] read?
**A.** 10000 to 100000 nM

**Q.** What about the IC50 [2] of the same compound?
**A.** 10000 to 100000 nM

**Q.** For `Cc1nn(C2CCN(C(C)C)CC2)cc1Nc1cnccc1C(=O)O` [Compound 102, 3-((1-(1-isopropylpiperidin-4-yl)-3-methyl-1H-pyrazol-4-yl)amino)isonicotinic acid], which IC50 [1] is on record?
**A.** 100 to 1000 nM

**Q.** And the IC50 [2]?
**A.** 100 to 1000 nM

**Q.** Which results are given for `Cc1c(Nc2cnccc2C(=O)O)cnn1C1CCN(C(=O)c2ccccc2)CC1` [Compound 98, 3-(1-(1-benzoylpiperidin-4-yl)-5-methyl-1H-pyrazol-4-ylamino) isonicotinic acid]?
**A.** IC50 [1]: 100 to 1000 nM; IC50 [2]: 100 to 1000 nM

**Q.** With `O=C(O)c1ccncc1Nc1nn(CCC(F)(F)F)cc1-c1ccccc1` [Compound 73, 3-((4-phenyl-1-(3,3,3-trifluoropropyl)-1H-pyrazol-3-yl)amino) isonicotinic acid] as the compound, how does the IC50 [1] read?
**A.** 100 to 1000 nM

**Q.** And the IC50 [2]?
**A.** 100 to 1000 nM

**Q.** Which results are given for `COCCn1nc(-c2ccccc2)cc1Nc1cnccc1C(=O)O` [Compound 27, 3-((1-(2-Methoxyethyl)-3-phenyl-1H-pyrazol-5-yl)amino) isonicotinic acid]?
**A.** IC50 [1]: 100 to 1000 nM; IC50 [2]: 100 to 1000 nM

**Q.** `Cc1c(-c2ccccc2)nn(C)c1Nc1cnccc1C(=O)O` [Compound 53, 3-((1,4-dimethyl-3-phenyl-1H-pyrazol-5-yl)amino)isonicotinic acid] was tested. Which IC50 [1] did it give?
**A.** 100 to 1000 nM

**Q.** And the IC50 [2]?
**A.** 100 to 1000 nM

**Q.** With `Cc1nn(-c2ccccc2)c(C)c1Nc1cnccc1C(=O)O` [Compound 77, 3-((3,5-dimethyl-1-phenyl-1H-pyrazol-4-yl)amino)isonicotinic acid] as the compound, how does the IC50 [1] read?
**A.** 1 to 100 nM

**Q.** What about the IC50 [2] of the same compound?
**A.** 100 to 1000 nM

**Q.** Which IC50 [1] does the source give for `Cc1c(Nc2cnccc2C(=O)O)cnn1Cc1ccccc1` [Compound 33, 3-((1-benzyl-5-methyl-1H-pyrazol-4-yl)amino)isonicotinic acid] here?
**A.** 1 to 100 nM

**Q.** What about the IC50 [2] of the same compound?
**A.** 1 to 100 nM

**Q.** What does the source list for `O=C(O)c1ccncc1Nc1c(-c2ccc(F)cc2)cnn1CCN1CCC(F)(F)CC1` [Compound 46, 3-((1-(2-(4,4-difluoropiperidin-1-yl)ethyl)-4-(4-fluorophenyl)-1H-pyrazol-5-yl)amino) isonicotinic acid]?
**A.** IC50 [1]: 1000 to 10000 nM; IC50 [2]: 10000 to 100000 nM

**Q.** `COC(=O)c1ccncc1Nc1cnn(C2CCN(C(C)C)CC2)c1C` [Compound 103, methyl 3-((1-(1-isopropylpiperidin-4-yl)-5-methyl-1H-pyrazol-4-yl)amino)isonicotinate] was tested. Which IC50 [1] did it give?
**A.** 10000 to 100000 nM

**Q.** What about the IC50 [2] of the same compound?
**A.** 10000 to 100000 nM

**Q.** With `CN1CCN(CCn2cc(-c3ccccc3)c(Nc3cnccc3C(=O)O)n2)CC1` [Compound 34, 3-((1-(2-(4-Methylpiperazin-1-yl)ethyl)-4-phenyl-1H-pyrazol-3-yl)amino)isonicotinic acid] as the compound, how does the IC50 [1] read?
**A.** 1000 to 10000 nM

**Q.** And the IC50 [2]?
**A.** 10000 to 100000 nM

**Q.** With `CN(C)CCCn1cc(-c2ccccc2)c(Nc2cnccc2C(=O)O)n1` [Compound 51, 3-((1-(3-(dimethylamino)propyl)-4-phenyl-1H-pyrazol-3-yl)amino) isonicotinic acid] as the compound, how does the IC50 [1] read?
**A.** 1 to 100 nM

**Q.** And the IC50 [2]?
**A.** 100 to 1000 nM

**Q.** With `Cn1ncc(-c2cccc(F)c2)c1Nc1cnccc1C(=O)O` [Compound 10, 3-((4-(3-Fluorophenyl)-1-methyl-1H-pyrazol-5-yl)amino) isonicotinic acid] as the compound, how does the IC50 [1] read?
**A.** 1000 to 10000 nM

**Q.** And the IC50 [2]?
**A.** 1000 to 10000 nM

**Q.** `Cc1nn(-c2ccccc2C#N)cc1Nc1cnccc1C(=O)O` [Compound 70, 3-((1-(2-cyanophenyl)-3-methyl-1H-pyrazol-4-yl)amino) isonicotinic acid] was tested. Which IC50 [1] did it give?
**A.** 100 to 1000 nM

**Q.** What about the IC50 [2] of the same compound?
**A.** 1000 to 10000 nM

**Q.** Which results are given for `Cn1cc(-c2ccc(F)cc2)c(Nc2cnccc2C(=O)O)n1` [Compound 7, 3-((4-(4-Fluorophenyl)-1-methyl-1H-pyrazol-3-yl)amino) isonicotinic acid]?
**A.** IC50 [1]: 100 to 1000 nM; IC50 [2]: 100 to 1000 nM

**Q.** How did the IC50 [1] turn out when `NCCn1nc(-c2ccccc2)cc1Nc1cnccc1C(=O)O` [Compound 26] was run?
**A.** 1000 to 10000 nM

**Q.** What about the IC50 [2] of the same compound?
**A.** 1000 to 10000 nM

**Q.** For `CN(C)CCn1cc(-c2ccccc2)c(Nc2cnccc2C(=O)O)n1` [Compound 64, 3-((1-(2-(dimethylamino)ethyl)-4-phenyl-1H-pyrazol-3-yl)amino)isonicotinic acid], which IC50 [1] is on record?
**A.** 1 to 100 nM

**Q.** And the IC50 [2]?
**A.** 1 to 100 nM

**Q.** What does the source list for `Cc1cc(Nc2cnccc2C(=O)O)n(-c2ccccc2)n1` [Compound 61, 3-((3-methyl-1-phenyl-1H-pyrazol-5-yl)amino) isonicotinic acid]?
**A.** IC50 [1]: 100 to 1000 nM; IC50 [2]: 100 to 1000 nM

**Q.** `COC(=O)c1ccncc1Nc1cn(C2CCN(C(C)C)CC2)nc1C` [Compound 101, methyl 3-((1-(1-isopropylpiperidin-4-yl)-3-methyl-1H-pyrazol-4-yl)amino)isonicotinate] was tested. Which IC50 [1] did it give?
**A.** 10000 to 100000 nM

**Q.** And the IC50 [2]?
**A.** 10000 to 100000 nM

**Q.** Which IC50 [1] does the source give for `Cc1nn(CCN(C)C)cc1Nc1cnccc1C(=O)O` [Compound 107, 3-(1-(2-(dimethylamino)ethyl)-3-methyl-1H-pyrazol-4-ylamino) isonicotinic acid] here?
**A.** 100 to 1000 nM

**Q.** And the IC50 [2]?
**A.** 1000 to 10000 nM

**Q.** With `Cc1cc(Nc2cnccc2C(=O)O)nn1-c1ccccc1` [Compound 60, 3-((5-methyl-1-phenyl-1H-pyrazol-3-yl)amino)isonicotinic acid] as the compound, how does the IC50 [1] read?
**A.** 100 to 1000 nM

**Q.** And the IC50 [2]?
**A.** 100 to 1000 nM

**Q.** Which IC50 [1] does the source give for `CN(C)CCCn1ncc(-c2ccccc2)c1Nc1cnccc1C(=O)O` [Compound 52, 3-((1-(3-(dimethylamino)propyl)-4-phenyl-1H-pyrazol-5-yl)amino) isonicotinic acid] here?
**A.** 1000 to 10000 nM

**Q.** And the IC50 [2]?
**A.** 10000 to 100000 nM
